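Tested at 5 concentrations; 48 h exposure; 96-well plates; endpoints linearly interpolated, else capped at highest concentration. Abbreviation: GI50, concentration required for 50% inhibition of growth. TGI: concentration producing complete growth inhibition.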
Legend:
Assay in all cases: DTP human tumour cell line panel, 48 h
A498 renal = tested on: A498 renal
A549 NSCLC = tested on: A549 NSCLC
786-0 renal = tested on: 786-0 renal
COLO 205 colon = tested on: COLO 205 colon
UACC-257 melanoma = tested on: UACC-257 melanoma
SF-268 CNS = tested on: SF-268 CNS
SW-620 colon = tested on: SW-620 colon
SK-MEL-5 melanoma = tested on: SK-MEL-5 melanoma
KM12 colon = tested on: KM12 colon
HL-60(TB) leukemia = tested on: HL-60(TB) leukemia

| Compound | TGI (A498 renal) | TGI (A549 NSCLC) | TGI (786-0 renal) | TGI (COLO 205 colon) | TGI (UACC-257 melanoma) | TGI (SF-268 CNS) | TGI (SW-620 colon) | TGI (SK-MEL-5 melanoma) | TGI (KM12 colon) | GI50 (A498 renal) | GI50 (COLO 205 colon) | GI50 (SF-268 CNS) | GI50 (SW-620 colon) | GI50 (SK-MEL-5 melanoma) | GI50 (HL-60(TB) leukemia) | TGI (HL-60(TB) leukemia) | GI50 (KM12 colon) | GI50 (A549 NSCLC) | GI50 (UACC-257 melanoma) |
| --- | --- | --- | --- | --- | --- | --- | --- | --- | --- | --- | --- | --- | --- | --- | --- | --- | --- | --- | --- |
| C=C(CC(=O)Nc1ccc(C(=O)OC)o1)C(=O)OC | > 100 µM | 35.8 µM | 39.6 µM | 41.1 µM | 44.5 µM | > 100 µM | 53.5 µM | 43.1 µM | 42.5 µM |  |  |  |  |  |  |  |  |  |  |
| Fc1ccc(C2CC(c3cccc(Nc4ccncc4)c3)=NN2c2cc(Cl)cc(Cl)c2)cc1 (centres undefined) | 2.6 µM |  |  | 4.81 µM |  | 3.4 µM | 3.29 µM | 3.34 µM | 3.26 µM | 1.17 µM | 2.21 µM | 1.72 µM | 1.75 µM | 1.81 µM | 2.25 µM | 5.14 µM | 1.76 µM |  |  |
| O=C(NNc1cn[nH]c(=O)c1Cl)/C(=C/c1ccc2c(c1)OCO2)NC(=O)c1ccccc1 |  | > 100 µM | > 100 µM | > 100 µM | > 100 µM |  | > 100 µM | > 100 µM | > 100 µM |  |  |  |  |  |  |  |  |  |  |
| O=C1OC2(C(F)(F)F)Oc3ccccc3CN2C12CCCCC2 (centres undefined) | > 100 µM | > 100 µM | > 100 µM | 34.7 µM | 71.4 µM | > 100 µM | > 100 µM |  | 90.8 µM |  |  |  |  |  |  | 40.5 µM |  |  |  |
| COc1ccc(/C=C(\C(=C/c2ccc(OC)cc2)[N+](=O)[O-])[N+](=O)[O-])cc1 | 79 µM | > 61.3 µM | 4.96 µM | 21.6 µM | 17.1 µM | 20.8 µM | 7.87 µM | 15.9 µM | 36.2 µM |  |  |  |  |  |  |  |  |  |  |
| O=C(c1ccccc1)c1c(C(F)(F)F)n([O-])c2cc(Cl)c(Cl)cc2[n+]1=O |  | 4.19 µM | 0.959 µM | 18.8 µM | 1.97 µM | 1.41 µM | 6.72 µM | 5.13 µM | 1.08 µM |  |  |  |  |  |  | 2.06 µM |  |  |  |
| CC(=NCCN(CCN=C(C)c1c(O)cc(C)oc1=O)CCN=C(C)c1c(O)cc(C)oc1=O)c1c(O)cc(C)oc1=O |  | > 100 µM | > 100 µM | > 100 µM | > 100 µM | > 100 µM | > 100 µM | > 100 µM | > 100 µM |  |  |  |  |  |  | > 100 µM |  |  |  |
| COc1ccccc1NC(=S)N/N=C(/C)c1ccccn1 |  | > 55.3 µM | 5.17 µM |  |  |  | > 100 µM |  | > 100 µM |  |  |  |  |  |  | 2.08 µM |  |  |  |
| CCc1nn(S(=O)(=O)c2ccc(C)cc2)c2c1CS(=O)(=O)CC2 | > 100 µM | > 100 µM | > 100 µM | > 100 µM | > 100 µM | > 100 µM | > 100 µM | > 100 µM | > 100 µM |  |  |  |  |  |  |  |  |  |  |
| CC1(C)[C@@H](Cn2cnc3c(=O)[nH]c(N)nc32)CC[C@@]1(C)CO | > 100 µM | > 100 µM | > 100 µM |  | > 100 µM | > 100 µM | > 100 µM | > 100 µM | > 100 µM |  |  |  |  |  |  |  |  |  |  |
| CC1CCc2c(sc3ncnc(N/N=C/c4ccc(Cl)c(Cl)c4)c23)C1 (centres undefined) |  | 34.4 µM | 55.8 µM | 71.6 µM | > 100 µM | > 100 µM | > 100 µM | 51.3 µM |  |  |  |  |  |  |  | > 100 µM |  |  |  |
| C[C@@H]1C[C@]2(C[C@@H](C)[C@H]3C(C[C@@]4(C)CCC[C@@H]5C6=C[C@H](CCC34C)OC6=CC(=O)OC5(C)C)O2)OC1=O (some centres undefined) | > 51.5 µM | > 51.5 µM |  | > 51.5 µM | > 51.5 µM |  | > 51.5 µM | > 51.5 µM | > 51.5 µM |  |  |  |  |  |  | > 51.5 µM |  |  |  |
| Oc1ccc2c(c1)CC[N+]1=C2CCC2CCCC21 (centres undefined) |  | > 100 µM | > 100 µM | > 100 µM |  | > 100 µM | > 100 µM | > 100 µM |  |  |  |  |  |  |  |  |  |  |  |
| O=C1c2ccccc2C(=O)c2c1ccc1c2N=C(c2ccc(F)cc2)CC(c2ccc(Cl)c(Cl)c2)N1 (centres undefined) | 54.9 µM | 47.6 µM |  | 33.4 µM | 50 µM | 32.1 µM | 19 µM | 31 µM | 19.4 µM |  |  |  |  |  |  | 35.9 µM |  |  |  |
| CCOC(=O)c1c2c(n3ccc(NC(=O)OC(C)(C)C)cc13)C(=O)c1ncccc1C2=O | 4.44 µM | 1.25 µM |  | 1.56 µM | 0.919 µM | 1.91 µM |  | 0.388 µM |  | 0.0339 µM | 0.352 µM | 0.0713 µM |  | 0.174 µM | 0.0256 µM | 0.38 µM |  | 0.186 µM | 0.265 µM |
| CCNC(=O)/C=C/CCC#Cc1ccc(-c2ccc(-c3cccs3)s2)s1 |  | > 100 µM | > 100 µM | 3.19 µM | > 100 µM | > 100 µM | > 100 µM | > 100 µM | > 100 µM |  |  |  |  |  |  | > 100 µM |  |  |  |
| Cc1cc(NS(=O)(=O)c2ccc(NC(=O)c3cccc4c(NNc5ccc(S(=O)(=O)N=C(N)N)cc5)c5ccccc5nc34)cc2)no1 |  | > 100 µM | > 100 µM | > 100 µM | > 100 µM | > 100 µM | > 100 µM | > 100 µM | > 100 µM |  |  |  |  |  |  | 75.6 µM |  |  |  |
| O=C1CCCC2=C1C(c1ccc3c(c1)OCO3)Nc1ccc3ccccc3c12 (centres undefined) | > 100 µM | > 100 µM | > 100 µM | > 100 µM | > 100 µM | > 100 µM | > 100 µM | > 100 µM | > 100 µM |  |  |  |  |  |  |  |  |  |  |
| COc1ccc(-c2nc(-c3cc4ccccc4oc3=O)cs2)cc1 |  | > 100 µM | > 100 µM | > 100 µM | > 100 µM | > 100 µM | > 100 µM | > 100 µM | > 100 µM |  |  |  |  |  |  | > 100 µM |  |  |  |
| NS(=O)(=O)c1ccc(Nc2c3ccccc3nc3c(C(=O)NCCCN(CCO)CCO)cccc23)cc1 | > 100 µM | 69.2 µM | 45.2 µM | 30.2 µM | 67.6 µM | 45.5 µM | 52.7 µM | 32.4 µM | 38.5 µM |  |  |  |  |  |  |  |  |  |  |
| CN1C/C(=C\c2ccc(Cl)cc2)C(=O)/C(=C/c2ccc(Cl)cc2)C1 | 3.2 µM | > 100 µM | 1.26 µM | 5.62 µM | 2.44 µM | > 100 µM | > 100 µM | > 26.5 µM | 2.39 µM |  |  |  |  |  |  |  |  |  |  |
| CCN(CC)C(=S)N/N=C/c1ccccn1 |  | 1.39 µM | 19 µM | > 53.9 µM |  | > 66.4 µM | > 100 µM | 0.542 µM | > 100 µM |  |  |  |  |  |  | 4.09 µM |  |  |  |
| COc1ccc(Oc2nc3ccc(C(F)(F)F)cc3nc2-c2ccccc2)cc1 | > 100 µM |  | > 100 µM | > 100 µM | > 100 µM | > 100 µM | > 100 µM | > 100 µM | > 100 µM |  |  |  |  |  |  | > 100 µM |  |  |  |

Source: PubChem BioAssay (NCI)
